# In patent publication US20110009416A1, “PH INDEPENDENT FORMULATIONS OF 6-(5-CHLORO-2-PYRIDYL)-5-[(4-METHYL-1-PIPERAZINYL)CARBONYLOXY]-7-OXO-6,7-DIHYDRO-5H-PYRROLO[3,4-b]PYRAZINE” (SEPRACOR INC., priority 2009, published 2011):
# Test: Dissolution over time of uncoated 3 mg eszopiclone tablets (Hanson SR8-Plus apparatus, fiber optic UV at 305 nm)
# Assay type: physicochemical
# Procedure: Dissolution over time of eszopiclone free base compounded with various solid acids was compared to that of free base at body temperature (37° C.) in dissolution media at various pH values using Hanson Research SR8—Plus Dissolution Apparatus and C-Technologies Fiber Optic UV Probes at 305 nm (excipients subtracted at 410 nm). The dissolution media used were (a) pH 1 (0.1N HCl) 50 ml of conc HCl mixed in 6 L of water; (b) pH 4.5 acetate buffer (20 mM) 5.88 g of sodium acetate trihydrate dissolved in 6 L of water, pH adjusted to 4.5 with acetic acid; (c) pH 5.5 phosphate buffer (20 mM) 16.3 g of potassium dihydrogen phosphate in 6 L of water. pH adjusted to 5.5 with NaOH; (d) pH 6.8 phosphate buffer (20 mM) 16.3 g of potassium dihydrogen phosphate in 6 L of water. pH adjusted 6.8 with NaOH. A standard dissolution protocol was used. The standard solution (0.006 mg/mL of eszopiclone free base) was prepared by weighing a known amount (−20 mg) of the free base into a 100 mL volumetric flask. 10 mL of acetonitrile was added into the flask and sonicated until the solids dissolved completely. The solution was cooled to room temperature and made up to the 100 mL mark using media and mixed well. Dilute 3 mL to 100 mL using media. The tables were prepared by transferring 500 mL dissolution media into the 6 vessels. Blank readings were taken for all the probes using media. Standards were read for individual vessels. Probes were washed with media and then inserted back into each vessel. […] The dissolution program was started immediately and readings were taken at 305 nm for 60 min (every 1 min for 20 min and then every 10 min)
# The following tables display results of dissolution experiments in deionized (DI) water of uncoated tablets formed from 3 mg free base IR eszopiclone (with no more than 0.3% (R)-zopiclone) with various acids. […] The pH values of the media was measured using a pH paper, in-situ at various time points during the dissolution experiment run in deionized (DI) water of uncoated tablets formed from 3 mg free base IR eszopiclone with 12% L-malic acid. […]
compound,measurement,setting,value
"CN1CCN(C(=O)O[C@H]2c3nccnc3C(=O)N2c2ccc(Cl)cn2)CC1 [free base, [(9S)-8-(5-chloropyridin-2-yl)-7-oxo-2,5,8-triazabicyclo[4.3.0]nona-1,3,5-trien-9-yl]-4-methyl piperazine-1-carboxylate]",dissolution profile in water (in words),"in water, FIG. 2 and FIG. 4, up to one hour",slow and incomplete
same,dissolved at one hour,"in water, FIG. 4, one hour",less than 50%
same,dissolution profile at pH 1 (in words),"pH 1, FIG. 3",dissolve rapidly and completely
